Laboratory results: US5693628A, “11-benzaldoxime-estra-diene derivatives, methods for their production and pharmaceuticals containing these compounds” (priority 1994, dated 1997)

Tests used:
[1] = test system: H4-IIE rat hepatoma cell line (TAT induction); assay: Antiglucocorticoid effect: inhibition of dexamethasone-induced TAT in rat hepatoma cells; assay type: cell-based; details: hepatomatous cells of rats; 10^-8 M dexamethasone
Text: (§1) FIG. 3. is a graph showing the antiglucocorticoid effect of J 867 (Example 1) in comparison to RU 486. The graph depicts the inhibition of TAT induction in a rat hepatoma cell line (the H4-IIE cell line) which were induced by 10^-8 M dexamethasone. The graph indicates the log molar antagonist concentration in the x-axis versus the maximum TAT induction as a percentage in the y-axis. The results for dexamethasone is shown as dashed lines (- - -), the IC50 is shown in solid line (----), RU 486 is shown as open boxes (.quadrature.), and J 867 is shown with closed boxes (.box-solid.).
FIG. 3 compares the antiglucocorticoid effect of J 867 and RU 486 on hepatomatous cells of rats using the TAT model.
In hepatomatous cells of rats, dexamethasone stimulates the tyrosine amino transferase enzyme (TAT). This effect is inhibited by antiglucocorticoid activity.
Antiglucocorticoid effect of J867 in hepatomatous cells of rats using the TAT model
The cell cultures were treated in DMEM under essentially the same conditions as in Example 14. The cells were spread over 24 well plates for the experiments. Substance was added to the confluent hepatomatous cells in 0.2% (v/v) ethanol for 16 hours. After the cells were carefully harvested using a scraper and a cell extract obtained using ultrasonic waves, TAT was determined according to Diamondstone.

[2] = test system: ZR75/AGP-763 human mammary cell line (CAT induction); assay: Antiglucocorticoid effect: inhibition of dexamethasone-induced CAT in ZR75/AGP-763 cells; assay type: cell-based; details: ZR 75/AGP-763; 10^-7 M dexamethasone; wide range of concentrations
Text: as §1, with “2.” for “3.”, “CAT” for “TAT”, “human mammary” for “rat hepatoma”, “ZR75/AGP-763” for “H4-IIE”, “10^-7” for “10^-8”
FIG. 2 depicts the antiglucocorticoid effect produced by J 867 in the ZR 75/AGP-763 line of human mammary cells compared with that of RU 486.
In this cell line, dexamthasone induces the chloroamphenicol acetyl transferase gene (CAT). This induction is inhibited by antiglucocorticoid substances.
Antiglucocorticoid effect of J867 in the ZR75/AGP-763 line of human mammary cells
The cell culture experiments were carried out in RPMI 1640 added with 10% foetal calf serum (FCS) using an incubator cabinet containing 95% air and 5% CO2 at 37° C. The cells were spread in 60 mm Petri dishes. […] CAT was determined using a Boehringer ELISA according to the instructions for quantitative CAT determination of transfected cells.

[3] = test system: uterine weight in cyclic guinea pigs; assay: Influence on uterine weight in cyclic guinea pigs; assay type: in vivo, guinea pig
Text: FIG. 1. is a chart showing a comparison of the influence on uterine weight in cyclic guineau pigs when treated with the antigestagen agents RU 486, a control (the vehicle), and a compound of the present invention, J 867 (as prepared in accordance with Example 1).
FIG. 1 compares the influence of antigestagen treatment of cyclic guinea pigs on uterine weights for J 867 and RU 486.
Treatment of female guinea pigs with antigestagen
Treatment of adult female guinea pigs from day 10 to day 18 of the cycle (autopsy). Administration of the specified doses using subcutaneous osmotic pumps (Type 2 ML1 ALZET). Vehicle: […] propylene glycol/24 hrs.

[4] = test system: early gravidity in the rat; assay: Early abortive effect / inhibition of early gravidity in the rat; assay type: in vivo; details: for complete gravidity inhibition % / complete gravidity inhibition N*/N (females not pregnant/inseminated females): empty uteri
Method: Inhibition of early gravidity in the rat
Female rats are mated in the pro-oestrus. If semen is found in the vaginal smear on the next day, this day is counted as day 1 (=d1) of the gravidity. Treatment with the test substance or vehicle is applied on d5-d7, autopsy is carried out on d9. The substances are injected subcutaneously in 0.2 ml of vehicle (benzyl benzoate/castor oil 1+4).

[5] = 0.3 mg/animal/day s.c., 5th to 7th day of pregnancy
[6] = 1.0 mg/animal/day s.c., 5th to 7th day of pregnancy
[7] = 3.0 mg/animal/day s.c., 5th to 7th day of pregnancy

Compound: COC[C@]1(OC)CC[C@H]2[C@@H]3CCC4=CC(=O)CCC4=C3[C@@H](c3ccc(C=NO)cc3)C[C@@]21C [Example 1, 11β-[4-(hydroximinomethyl)phenyl]-17β-methoxy-17α-methoxymethyl-estra-4,9-diene-3-on]
- antiglucocorticoid effect (TAT) compared with RU 486 [1]: clearly weaker antiglucocorticoid effect than RU 486
- inhibition of CAT compared with RU 486 [2]: inhibits CAT over a wide range of concentrations to a lesser extent than RU 486
- inhibition of uterine weights of cyclic guinea pigs, all doses ([3]; 1, 3, and 6 mg/24 hrs, s.c. osmotic pump, day 10 to 18 of cycle): inhibited uterine weights to a statistically significant extent
- uterine weights in the anovulatorial cycle in guinea pigs ([3]; doses at which RU 486 increases uterine weights, compared with control animals): significantly reduced uterine weights
- complete gravidity inhibition % [4, 5]: 0%
- complete gravidity inhibition N*/N (females not pregnant/inseminated females) [4, 5]: 0/5
- complete gravidity inhibition % [4, 6]: 100%
- complete gravidity inhibition N*/N (females not pregnant/inseminated females) [4, 6]: 5/5
- complete gravidity inhibition % [4, 7]: 100%
- complete gravidity inhibition N*/N (females not pregnant/inseminated females) [4, 7]: 5/5
- ED 50 ([4]; s.c., 5th to 7th day of pregnancy, graphic determination): 0.6 mg/animal/day
- inhibition capability of nidation as compared to RU 486 (factor) ([4]; s.c., d5-d7, autopsy d9, factor compared to RU 486): 3
